Assay results reported in article PMC4130196, “Angiotensin I-Converting Enzyme Inhibitor Derived from Cross-Linked Oyster Protein” (BioMed Research International, 2014).

Assays:
[1] = test system: spontaneously hypertensive rats (SHR); experiment: Antihypertensive activity in vivo: SBP of SHR by tail-cuff method after intragastric administration; design: species or system rat
Experimental: Spontaneously hypertensive rats (SHR) with systolic blood pressure (SBP) between 170 and 190 mmHg and original strain Wistar Kyoto rats (WKR) with SBP between 100 and 125 mmHg were purchased from Harlan, USA (Indianapolis, USA). All rats were treated in accordance with Kyung Hee University guidelines for the care and use of laboratory animals. The animals were individually housed in stainless steel cages and adapted to 23 ± 1°C and humidity of 55 ± 5% under a 12 h light-dark cycle. The 12-week-old rats were fed a pelletized commercial chow diet for a period of 1 week after arrival and then randomly divided into five groups: untreated SHR control group (n = 3); normal WKR control group (n = 3); oyster hydrolysate-treated SHR group (100 mg/kg body weight, n = 3); sardine hydrolysate-treated SHR group (positive control, 100 mg/kg body weight, n = 3); and Captopril-treated SHR group (positive control, ACE inhibitor; 8 mg/kg body weight, n = 3). After intragastric administration of the samples using Sonde, SBP of the rats was measured by a Coda noninvasive blood pressure system (Kent Scientific Corporation, Baltimore, USA) using the tail-cuff method after prewarming for 30 min in an environmental chamber of 32°C at 0, 3, 6, 9, 12, and 24 h. Subsequent measurement of blood pressure was expressed as a percentage of that at the initial time.

in vitro = assay type: cell-based; conditions: human
Experimental: The ACE inhibitory activities of the synthetic peptides were measured, and the cell toxicity was evaluated by cell viability testing on the hepatocyte cell line HepG2. HepG2 cells were cultured in MEM medium containing 10% fetal bovine serum. Ninety-six well plates containing 1 × 10^4 cells per well were incubated at 35°C for 24 h under 95% humidity and 5% CO2. After incubation, the synthetic peptides were added (final concentration, 200 μg/mL) and cells were incubated under the same conditions for an additional 24 h. Cell growth was assessed with the CellTiter 96 Aqueous One Solution Cell Proliferation Assay kit (Promega, Madison, WI, USA) and absorbance was determined with a microplate reader (Perkin Elmer 1420, VICTOR X Multilabel Plate readers, Waltham, MA, USA) at 490 nm. Cell viability was calculated as the percentage of absorbance of the synthetic peptide-treated groups compared with that of the untreated group (100% viability).

[2] = biological target: Angiotensin I-converting enzyme (UniProt P12822)
UniProt P12822, sequence (P12822 34-1260): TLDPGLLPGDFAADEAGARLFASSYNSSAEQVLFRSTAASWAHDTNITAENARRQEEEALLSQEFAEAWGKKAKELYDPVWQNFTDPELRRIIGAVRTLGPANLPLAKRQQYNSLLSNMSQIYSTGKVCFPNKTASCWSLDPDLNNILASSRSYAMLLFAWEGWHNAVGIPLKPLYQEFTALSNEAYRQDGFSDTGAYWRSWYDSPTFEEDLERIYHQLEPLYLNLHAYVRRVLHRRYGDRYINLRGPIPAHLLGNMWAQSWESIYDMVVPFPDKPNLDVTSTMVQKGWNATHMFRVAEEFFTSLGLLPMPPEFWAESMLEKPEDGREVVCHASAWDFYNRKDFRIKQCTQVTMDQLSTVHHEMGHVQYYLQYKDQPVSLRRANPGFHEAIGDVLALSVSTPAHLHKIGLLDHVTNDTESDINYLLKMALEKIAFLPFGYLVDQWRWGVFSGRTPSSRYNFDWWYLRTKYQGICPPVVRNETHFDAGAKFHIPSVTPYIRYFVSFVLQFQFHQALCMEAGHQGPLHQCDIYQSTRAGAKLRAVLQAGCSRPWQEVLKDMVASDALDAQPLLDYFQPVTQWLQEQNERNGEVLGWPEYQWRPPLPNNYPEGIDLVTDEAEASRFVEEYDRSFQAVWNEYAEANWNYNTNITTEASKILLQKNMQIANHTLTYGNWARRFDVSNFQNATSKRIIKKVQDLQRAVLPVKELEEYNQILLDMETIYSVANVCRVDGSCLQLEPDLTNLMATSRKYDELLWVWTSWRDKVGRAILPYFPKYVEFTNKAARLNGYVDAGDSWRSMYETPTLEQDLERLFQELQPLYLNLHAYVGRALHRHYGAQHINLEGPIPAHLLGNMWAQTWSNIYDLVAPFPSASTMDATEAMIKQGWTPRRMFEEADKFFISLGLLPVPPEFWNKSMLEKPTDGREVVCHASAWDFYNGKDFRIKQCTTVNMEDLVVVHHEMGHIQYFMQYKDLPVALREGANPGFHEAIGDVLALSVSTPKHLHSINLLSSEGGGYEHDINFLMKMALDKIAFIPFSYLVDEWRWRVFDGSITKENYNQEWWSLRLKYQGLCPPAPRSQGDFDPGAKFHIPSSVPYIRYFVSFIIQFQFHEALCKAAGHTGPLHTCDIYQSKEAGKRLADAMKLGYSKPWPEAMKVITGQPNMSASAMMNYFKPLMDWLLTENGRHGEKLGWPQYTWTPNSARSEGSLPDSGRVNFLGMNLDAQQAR

For C[C@H](CS)C(=O)N1CCC[C@H]1C(=O)O [Captopril], the “SBP at maximum decrease, as % of the initial SBP” value ([1]; 8 mg/kg intragastric, 12 h after administration) was 85.3 ± 4.5% and the “effect on SBP of SHR (in words)” value ([1]; oral administration, oyster and sardine hydrolysate 100 mg/kg, Captopril 8 mg/kg) was “not significant”.

With NC(=O)C[C@H](NC(=O)[C@H](Cc1ccc(O)cc1)NC(=O)[C@@H](N)Cc1ccccc1)C(=O)O [FYN] the viability at 24 h, 200 μg/mL (in vitro) was 110 ± 3%.

For NCCCC[C@H](N)C(=O)N[C@@H](Cc1ccc(O)cc1)C(=O)O [KY], the viability at 24 h, 200 μg/mL (in vitro) was 118 ± 7%.

Compound C[C@H](NC(=O)[C@@H](N)[C@@H](C)O)C(=O)N[C@@H](Cc1ccc(O)cc1)C(=O)O [TAY] has a viability at 24 h, 200 μg/mL (in vitro) of 105 ± 1.9%.

CC(C)[C@H](N)C(=O)N[C@@H](CCCCN)C(=O)O [VK] showed a viability at 24 h, 200 μg/mL (in vitro) of 118 ± 15.1%.

For FYN (peptide), the IC50 of ACE inhibition (enzyme activity: hippuric acid released from HHL, by HPLC) [2] was 68.2 µM.

With KY (peptide) the IC50 of ACE inhibition (enzyme activity: hippuric acid released from HHL, by HPLC) [2] was 51.5 µM.

TAY (peptide) showed an IC50 of ACE inhibition (enzyme activity: hippuric acid released from HHL, by HPLC) [2] of 16.7 µM.

For VK (peptide), the IC50 of ACE inhibition (enzyme activity: hippuric acid released from HHL, by HPLC) [2] was 29 µM.

Work on YA (peptide) yielded an IC50 of ACE inhibition (enzyme activity: hippuric acid released from HHL, by HPLC) [2] of 93.9 µM.
